{
  "source": "paper doi:10.1101/2023.12.19.571805v1",
  "about": "(biorxiv, 2023)",
  "target": "T1, PhoR (PhoR-GFP) (Mycobacterium tuberculosis, UniProt P71815)",
  "T1 sequence (P71815 181-485 limits assumed)": "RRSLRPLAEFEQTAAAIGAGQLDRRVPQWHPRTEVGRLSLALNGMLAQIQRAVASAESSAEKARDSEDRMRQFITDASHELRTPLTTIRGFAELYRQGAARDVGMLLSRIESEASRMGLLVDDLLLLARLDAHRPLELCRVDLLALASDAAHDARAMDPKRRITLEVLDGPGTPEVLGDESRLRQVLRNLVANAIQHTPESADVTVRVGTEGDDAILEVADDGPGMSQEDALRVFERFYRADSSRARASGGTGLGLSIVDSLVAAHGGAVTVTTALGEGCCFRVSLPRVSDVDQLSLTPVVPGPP",
  "test": "radioactive dot-blot autophosphorylation assay",
  "type": "biochemical",
  "details": "read-out: % inhibition at 10 μM",
  "note": "*1 amine or outer side, *2 acyl side, *3 side chain or, on linkers, in order; H or OH if unused. Where a SMILES comes first, the peptide text is derived from it. Bridges are numbered along the chain shown (N, C = ends). Roman numbers before positions name the chains, in order. [ ]: non-standard residue; d: D form. Actinocin(9to1) = Cc1c2oc3c(C)ccc(C(=O)[*:1])c3nc-2c(C(=O)[*:2])c(N)c1=O; NMeV = CN[C@H](C(=O)O)C(C)C; Sar = CNCC(=O)O",
  "data": [
    {"smiles": "Cc1c2oc3c(C)ccc(C(=O)N[C@@H]4C(=O)N[C@H](C(C)C)C(=O)N5CCC[C@H]5C(=O)N(C)CC(=O)N(C)[C@@H](C(C)C)C(=O)O[C@@H]4C)c3nc-2c(C(=O)N[C@@H]2C(=O)N[C@H](C(C)C)C(=O)N3CCC[C@H]3C(=O)N(C)CC(=O)N(C)[C@@H](C(C)C)C(=O)O[C@@H]2C)c(N)c1=O", "note": "[Actinomycin D] (I: T[dV]P[Sar][NMeV] / II: T[dV]P[Sar][NMeV]; ester I:1-I:C, II:1-II:C; linker I:N-II:N via Actinocin(9to1))", "values": [
      {"measurement": "inhibition at 10 µM", "result": "> 50", "unit": "%"}
    ]}
  ]
}
